Results reported in patent US20240254531A1, “Enhancing Coupled Catalytic Activity of Multi-Enzyme Cascades With Liquid-Liquid Phase Separation Using Peptide-Based Condensates” (The Government of the United States of America, as …, priority 2023, published 2024).

How the values were obtained:
other enzymes = experiment: enhancement of activity of other enzymes by peptide; type: biochemical; conditions: as detailed in the Appendix of Provisional Patent Application No. 63/482,369
[1] = test system: three enzyme cascade (AspB, LysC, Asd); experiment: three-enzyme cascade reaction, rate of NADP+ formation with added peptide; type: biochemical, Bacillus subtilis (AspB); E. coli (LysC; conditions: addition of peptide vs no BP, FIG. 6A
Description: A three-enzyme cascade was used for these examples. The first enzyme in the cascade is Bacillus subtilis aspartate ammonia lyase (AspB), which catalyzes the conversion of fumaric acid to aspartic acid. The AspB gene utilized here encodes a 54.5 kDa monomer which assembles into a final active tetramer. The second enzyme is E. coli aspartokinase III (LysC) which phosphorylates aspartic acid in the second step using adenosine triphosphate (ATP) as the phosphate donor. The LysC gene encodes a 49.9 kDa monomer, which assembles into an active ˜100 kDa homodimer. The third enzyme in the cascade, E. coli aspartate-ß-semialdehyde dehydrogenase (Asd), catalyzes conversion of aspartyl phosphate to aspartate semialdehyde using nicotinamide adenine dinucleotide phosphate (NADPH) as the reducing co-factor. The Asd gene encodes a 41.4 kDa monomer which assembles into the active homodimer.
FIG. 2 provides data for free enzymes (not bound to QD) in the presence of different blocking peptides described in Table 1. […]
(§1) Also assayed were two peptides comprising primarily histidine, termed His9 and His12, with their sequences provided below in Table 3. […] FIG. 6C is a fluorescence microscopy image of the same subject of FIG. 6B showing that Alexa594 labeled enzymes are colocalized to the coacervate interior.

[2] = brightfield microscopy of peptide coacervate formation; type: physicochemical; conditions: brightfield microscopy image, FIG. 6B
Description: FIGS. 6A-6C show data for enhancement with His9 and His12 peptides and fluorescence micrograph images denoting coacervate formation and localization of enzymes within the coacervates. In FIG. 6A one can see the normalized initial rate of NADP+ formation of the three enzyme cascade with no BP or with addition of the His9 and His12 peptides. The flux through the cascade is increased with the addition of the BP. […] FIG. 6C is a fluorescence microscopy image of the same field as FIG. 6B showing that Alexa594 labeled enzymes are colocalized to the coacervate interior. Excitation was with a 562 nm laser and detection at 570-620 nm.
as §1, with “3. FIGS. 6A to 6C show data relating to these peptides. […] The flux through the cascade is increased with the addition of the BP.” for “3.”

Row | Substance | activity of other enzymes (other enzymes) | flux through the cascade (normalized initial rate of NADP+ formation) [1] | coacervate formation [2]
1 | [NH2]GSWHHHHHH[Amide] (H-GSWHHHHHH-NH2) [His-amine] | enhance activity | – | –
2 | [NH2]WHHHHHHHHHHHH[COOH] (H-WHHHHHHHHHHHH-OH) [His12] | – | increased | –
3 | [NH2]WHHHHHHHHH[COOH] (H-WHHHHHHHHH-OH) [His9] | – | increased | form coacervates
